Experimental data from article PMC10541198, “Specific quinone reductase 2 inhibitors reduce metabolic burden and reverse Alzheimer’s disease phenotype in mice” (The Journal of Clinical Investigation, 2023).
Several values for one entry are separate records, joined by “and”; a condition that tells them apart may be missing. Identical values can stand only once.

Test system: 5xFAD mice
Assay: Morris water maze in 5xFAD mice
Format: in vivo, mouse
Conditions: for MWM escape latency (individual mice): 5xFAD 1 month
Procedure: We next aimed to test the effect of QR2 inhibition in AD model mice using YB-537, taking advantage of its extremely high specificity, solubility, and lack of toxicity. First, we determined YB-537 pharmacokinetics (PK) and oral bioavailability and assessed any acute observable toxicity in mice. […] We therefore opted to chronically deliver YB-537 to AD-model mice via their drinking water, so they may freely ingest the inhibitor at 50 mg/kg, with minimal intervention or trauma, for 1 month. We chose 9-month-old 5xFAD ([27]) male and female mice in double-blind experiments, so that well-progressed symptoms and pathologies would be present, to mimic clinically relevant cases in human patients ([35]), as has been previously described in this mouse model. Other than an improvement in nest quality ([36]) over time seen in animals receiving YB-537 (starting at age 8 months and ending at age 9 months), no changes to general physical parameters or wellbeing were observed over the 1 month of YB-537 ingestion (Supplemental Figure 6, A–J). Animals received the treatment for a week, and, on week 2, behavioral experiments commenced, including Morris water maze (MWM) and novel object recognition (NOR). These were carried out in parallel, with half of the animals (including both sexes and treatments) undergoing 1 of the paradigms in week 2, and the other in week 3. […] Since learning in this paradigm was slow, and performance was poor even following 6 days of training (using 4 learning trials a day), a test day was not carried out and instead only the learning rate was measured. […] Finally, during week 4, all the mice underwent DFC.
MWM was carried out as previously described ([57]). Mice were trained 4 times a day, using 60 second trials every 30 minutes during which they were placed into the pool, each time from a different quadrant, and allowed to swim to find the escape platform. All trials were filmed with a video tracking system using EthoVision 14 (Noldus Information Technology), and escape latency, or time to find the submerged escape platform, was determined by video analysis. […]
Morri s wat er maze ( MWM) was carried out as previously described(58). At the sam e time each consecutive day, mice were placed in the dimly lit room containing the maze for 10 min, within cages containing dry bedding (not the home cages). The maze was obscured by a non-light- permeable curtain. The maze consisted of a 1.2 m pool, with RT (21- 23 °C) water colored light grey, to hide the submerged (under 1- 2 cm) transparent, 10 cm in diam et er plastic escape platform, which was placed at t he south- western quadrant of the pool. Mi ce wer e trained 4 times a day, using 60 s trials ever y 30 min during which t he y were pl a c ed into t he pool, each time fr om a di fferent quadrant, and allowed to swim and find t he escape platform. Upon reaching t he platform, m ice were removed fr om t he pool. If the mice f ai led to find the […] within 60 s, […]
they were carefully placed on the escape platform and held there for 15 s prior to being taken out of the pool. All trials were filmed with a video tracking system using EthoVision 14 (Noldus Information Technology), andescape latency (time to find the submer ged escape platform) was determined by manual video analysis (due to automated det ect ion settings unable to discern all mice coat c ol or s – bl a c k, white a nd brown - against the opaque water).
Mice were individually placed within a cage and taken to a dimly lit room containing an open field arena 50 x 50 cm in size. They were gi ve n 10 min prior to be i ng placed within the arena, where f or a period of 5 min they were allowed to explore. Two weeks later, this was repeated. The mice were filmed with an Ikegami ICD-49E camera with EthoVision 14 (Noldus Information Technology). Th e fl oor was ei ther whit e or black,dependingon mous e coat c ol or, to allow automatic analysisof movement par am et ers, apar t from rearing which was manually counted. […]

Structure (SMILES): Cc1ccc(-c2cn3cccc(C)c3n2)cc1S(=O)(=O)N1CCNCC1 [YB-537]
- MWM escape latency (individual mice) (both sexes, Day 1): 60.0 (8×) and 29.4 and 26.8 and 55.1 and 57.2 and 53.5 (2×) and 41.6 and 50.9
- MWM escape latency (individual mice) (both sexes, Day 2): 60.0 (6×) and 28.0 and 23.5 and 59.7 and 50.7 and 45.3 and 33.5 and 15.1 and 54.5 and 36.1 and 58.0
- MWM escape latency (individual mice) (both sexes, Day 3): 48.7 and 59.3 and 42.1 and 33.7 and 34.3 and 45.6 and 37.0 and 60.0 (2×) and 49.6 and 35.1 and 26.9 and 13.8 and 47.4 and 47.7 and 54.0
- MWM escape latency (individual mice) (both sexes, Day 4, in s (unit assumed)): 44.6 and 57.9 and 24.5 and 37.5 and 31.1 and 37.6 and 51.0 and 60.0 and 52.1 and 34.3 and 5.9 and 14.1 and 13.3 and 23.0 and 48.5 and 53.9
- MWM escape latency (individual mice) (both sexes, Day 5, in s (unit assumed)): 19.0 and 40.4 and 25.1 and 16.2 and 18.6 and 45.8 and 60.0 and 50.4 and 37.0 and 38.2 and 5.7 and 19.6 and 7.3 and 21.1 and 16.8 and 48.8
- MWM escape latency (individual mice) (both sexes, Day 6): 39.3 and 17.9 and 20.3 and 12.9 and 14.8 and 34.0 and 50.7 and 60.0 and 14.1 and 16.8 and 5.6 and 7.2 (2×) and 16.3 and 19.0 and 27.9
- MWM escape latency (individual mice) (males, Day 5, in s (unit assumed)): 16.2 and 18.6 and 45.8 and 60.0
- spatial learning in MWM (escape latency over 6 days) (5xFAD, 50 mg/kg in drinking water, 1 month, both sexes): trend toward faster spatial learning
